Tests used:
PfCelTOS [1] = assay type: in vivo, Plasmodium falciparum; details: BALB/c mice; SE dose 0.5%-2% experiment; GLA- or Montanide-containing vaccines
PfCelTOS [2] = assay: Antibody endpoint titers (IgG, IgG1, IgG2a) after immunization with PfCelTOS vaccine compositions; details: BALB/c mice; SE dose 0.02%-2% experiment; GLA (SE or AF) compared to same vaccine composition without GLA
Procedure: On the day of immunization, the emulsion was diluted with PBS to the specified oil concentrations and mixed with antigen and GLA-AF (where applicable). […] Throughout the manuscript the emulsion dose is referred to as the % v/v of oil in the final vaccine formulation; the ratio of oil to emulsifier is kept constant at all doses.
Endpoint titer was determined using Prism (GraphPad Software, La Jolla, Calif.) following a sigmoidal fit (variable slope) of the values determined at dilution, with the endpoint titer corresponding to a cutoff value (C) determined as described previously [10] with C=X+SDf, where X is the average and SD is the standard deviation of the negative sera control plate, and f is the multiplier at the 99.9% confidence level. A cutoff value of 0.1 OD was assigned if the cutoff value as determined above was less than 0.1 OD. On rare occasions, individual plate wells registered an abnormally high reading near the highest dilutions. These were excluded from the sigmoidal fit by employing the Grubb's test on the suspect value, comparing to the 4 dilutions surrounding the dilution in question at the 99% confidence level [11].
BALB/c mice were immunized 3 times with PfCelTOS vaccine compositions with 3 weeks between injections.

## glucopyranosyl lipid adjuvant [GLA]
PfCelTOS [1]
  antibody-secreting plasma cells: Higher numbers
PfCelTOS [2]
  IgG2a response: stronger

— patent US11510875B2, “Adjuvant formulations comprising TLR4 agonists and methods of using the same” (priority 2012, dated 2022)
